The kinase profiling compilation of Christmann-Franck et al. (2016)

Legend:
Test in all cases: KINOMEscan competition binding
Details in all cases: compound 10.0 µM
[1] = test system: ABL1 (human), P00519 [Q252H]
[2] = test system: ABL1 (human), P00519 [T315I]
ABL2 (human) = ABL2 (human) (UniProt P42684)
ANKK1 (human) = ANKK1 (human) (UniProt Q8NFD2)
BLK (human) = BLK (human) (UniProt P51451)
CDK17 (human) = CDK17 (human) (UniProt Q00537)
CDK8 (human) = CDK8 (human) (UniProt P49336)
CDK9 (human) = CDK9 (human) (UniProt P50750)
CDK9 (human), sequence (P50750 whole entry, looked up): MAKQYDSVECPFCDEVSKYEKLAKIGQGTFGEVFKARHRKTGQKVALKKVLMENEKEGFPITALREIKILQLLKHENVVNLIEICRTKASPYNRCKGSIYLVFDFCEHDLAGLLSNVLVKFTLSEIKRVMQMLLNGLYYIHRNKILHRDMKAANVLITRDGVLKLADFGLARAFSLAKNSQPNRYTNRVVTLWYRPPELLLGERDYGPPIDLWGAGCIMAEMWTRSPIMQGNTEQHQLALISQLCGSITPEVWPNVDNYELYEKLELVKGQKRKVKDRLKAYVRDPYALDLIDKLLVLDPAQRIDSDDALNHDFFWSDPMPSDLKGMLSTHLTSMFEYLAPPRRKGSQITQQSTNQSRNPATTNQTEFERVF

CSF1R (human) = CSF1R (human) (UniProt P07333)
CaMK1 (human) = CaMK1 (human) (UniProt Q14012)
CaMK1 (human), sequence (Q14012 whole entry, looked up): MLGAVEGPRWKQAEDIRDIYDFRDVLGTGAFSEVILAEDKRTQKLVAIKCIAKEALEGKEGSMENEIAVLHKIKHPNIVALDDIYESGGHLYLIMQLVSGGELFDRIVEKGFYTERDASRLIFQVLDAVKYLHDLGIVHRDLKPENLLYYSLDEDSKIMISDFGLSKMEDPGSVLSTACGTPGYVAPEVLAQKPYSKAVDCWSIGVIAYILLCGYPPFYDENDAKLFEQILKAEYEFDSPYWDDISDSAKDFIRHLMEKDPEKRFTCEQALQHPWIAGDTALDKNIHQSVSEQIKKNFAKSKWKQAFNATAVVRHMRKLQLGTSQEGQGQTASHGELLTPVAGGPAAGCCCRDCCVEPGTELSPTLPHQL

[3] = test system: EGFR (human), P00533 [752-759 del]
EPHA3 (human) = EPHA3 (human) (UniProt P29320)
EPHA8 (human) = EPHA8 (human) (UniProt P29322)
FER (human) = FER (human) (UniProt P16591)
FGFR1 (human) = FGFR1 (human) (UniProt P11362)
FGFR2 (human) = FGFR2 (human) (UniProt P21802)
[4] = test system: FGFR3 (human), P22607 [G697C]
[5] = test system: FLT3 (human), P36888 [D835H]
[6] = test system: FLT3 (human), P36888 [ITD]
[7] = test system: FLT3 (human), P36888 [K663Q]
FLT4 (human) = FLT4 (human) (UniProt P35916)
[8] = target: JAK3 JH1 catalytic (human) (UniProt P52333)
KIT (human) = KIT (human) (UniProt P10721)
[9] = test system: KIT (human), P10721 [V559D/T670I]
[10] = test system: KIT (human), P10721 [V559D]
LYN (human) = LYN (human) (UniProt P07948)
MAP3K3 (human) = MAP3K3 (human) (UniProt Q99759)
MAPK9 (human) = MAPK9 (human) (UniProt P45984)
MKNK2 (human) = MKNK2 (human) (UniProt Q9HBH9)
PTK2B (human) = PTK2B (human) (UniProt Q14289)
RET (human) = RET (human) (UniProt P07949)
RET (human), sequence (P07949 whole entry, looked up): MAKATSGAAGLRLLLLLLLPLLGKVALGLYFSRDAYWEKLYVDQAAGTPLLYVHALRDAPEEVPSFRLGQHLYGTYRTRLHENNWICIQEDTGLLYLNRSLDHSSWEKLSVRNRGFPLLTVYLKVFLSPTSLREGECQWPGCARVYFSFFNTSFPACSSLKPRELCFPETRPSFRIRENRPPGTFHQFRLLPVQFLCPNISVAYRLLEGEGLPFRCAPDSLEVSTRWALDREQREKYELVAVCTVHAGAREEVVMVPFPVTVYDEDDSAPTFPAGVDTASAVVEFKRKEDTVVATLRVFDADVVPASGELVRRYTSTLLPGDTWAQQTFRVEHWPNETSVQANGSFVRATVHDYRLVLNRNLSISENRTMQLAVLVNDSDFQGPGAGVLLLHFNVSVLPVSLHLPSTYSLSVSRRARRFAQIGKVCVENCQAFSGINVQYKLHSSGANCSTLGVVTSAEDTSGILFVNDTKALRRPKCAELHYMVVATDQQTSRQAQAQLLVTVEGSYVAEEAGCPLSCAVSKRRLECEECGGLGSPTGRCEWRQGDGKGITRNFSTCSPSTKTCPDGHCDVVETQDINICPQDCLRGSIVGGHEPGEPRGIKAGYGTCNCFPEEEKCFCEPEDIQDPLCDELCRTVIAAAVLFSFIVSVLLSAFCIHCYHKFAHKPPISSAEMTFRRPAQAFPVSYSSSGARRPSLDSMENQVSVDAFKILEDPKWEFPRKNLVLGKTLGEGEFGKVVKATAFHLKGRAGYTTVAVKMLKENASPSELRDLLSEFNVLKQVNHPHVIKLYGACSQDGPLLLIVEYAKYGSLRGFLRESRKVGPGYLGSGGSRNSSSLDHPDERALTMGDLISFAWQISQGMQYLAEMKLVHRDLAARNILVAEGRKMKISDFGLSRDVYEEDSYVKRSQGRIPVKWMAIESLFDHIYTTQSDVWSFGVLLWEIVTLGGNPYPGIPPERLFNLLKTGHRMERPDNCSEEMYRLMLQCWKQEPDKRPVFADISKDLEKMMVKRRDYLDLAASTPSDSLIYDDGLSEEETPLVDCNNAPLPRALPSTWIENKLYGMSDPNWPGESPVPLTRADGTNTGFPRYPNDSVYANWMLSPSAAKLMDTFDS

[11] = test system: RET (human), P07949 [V804L]
RET (human), P07949 [V804L], sequence (P07949 whole entry V804L, looked up): as the sequence (P07949 whole entry, looked up) above, with V804L counted along it

RPS6KA5 KD1 (human) = RPS6KA5 KD1 (human) (UniProt O75582)
SIK1 (human) = SIK1 (human) (UniProt P57059)
SRC (human) = SRC (human) (UniProt P12931)
SRC (human), sequence (P12931 whole entry, looked up): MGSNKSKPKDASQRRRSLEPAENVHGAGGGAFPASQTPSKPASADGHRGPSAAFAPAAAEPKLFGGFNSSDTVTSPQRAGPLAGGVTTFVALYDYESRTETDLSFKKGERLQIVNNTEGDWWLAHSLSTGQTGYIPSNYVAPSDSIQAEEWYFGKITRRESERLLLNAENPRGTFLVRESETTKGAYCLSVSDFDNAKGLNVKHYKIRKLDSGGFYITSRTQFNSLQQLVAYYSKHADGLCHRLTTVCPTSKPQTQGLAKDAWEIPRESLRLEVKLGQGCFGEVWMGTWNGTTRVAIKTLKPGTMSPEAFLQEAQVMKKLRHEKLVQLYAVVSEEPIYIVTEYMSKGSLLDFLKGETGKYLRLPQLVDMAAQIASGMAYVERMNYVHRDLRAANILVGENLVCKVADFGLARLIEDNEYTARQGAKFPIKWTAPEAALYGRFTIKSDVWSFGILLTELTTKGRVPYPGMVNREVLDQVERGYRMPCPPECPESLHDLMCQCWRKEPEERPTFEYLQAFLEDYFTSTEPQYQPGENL

SRMS (human) = SRMS (human) (UniProt Q9H3Y6)
STK36 (human) = STK36 (human) (UniProt Q9NRP7)
STK36 (human), sequence (Q9NRP7 whole entry, looked up): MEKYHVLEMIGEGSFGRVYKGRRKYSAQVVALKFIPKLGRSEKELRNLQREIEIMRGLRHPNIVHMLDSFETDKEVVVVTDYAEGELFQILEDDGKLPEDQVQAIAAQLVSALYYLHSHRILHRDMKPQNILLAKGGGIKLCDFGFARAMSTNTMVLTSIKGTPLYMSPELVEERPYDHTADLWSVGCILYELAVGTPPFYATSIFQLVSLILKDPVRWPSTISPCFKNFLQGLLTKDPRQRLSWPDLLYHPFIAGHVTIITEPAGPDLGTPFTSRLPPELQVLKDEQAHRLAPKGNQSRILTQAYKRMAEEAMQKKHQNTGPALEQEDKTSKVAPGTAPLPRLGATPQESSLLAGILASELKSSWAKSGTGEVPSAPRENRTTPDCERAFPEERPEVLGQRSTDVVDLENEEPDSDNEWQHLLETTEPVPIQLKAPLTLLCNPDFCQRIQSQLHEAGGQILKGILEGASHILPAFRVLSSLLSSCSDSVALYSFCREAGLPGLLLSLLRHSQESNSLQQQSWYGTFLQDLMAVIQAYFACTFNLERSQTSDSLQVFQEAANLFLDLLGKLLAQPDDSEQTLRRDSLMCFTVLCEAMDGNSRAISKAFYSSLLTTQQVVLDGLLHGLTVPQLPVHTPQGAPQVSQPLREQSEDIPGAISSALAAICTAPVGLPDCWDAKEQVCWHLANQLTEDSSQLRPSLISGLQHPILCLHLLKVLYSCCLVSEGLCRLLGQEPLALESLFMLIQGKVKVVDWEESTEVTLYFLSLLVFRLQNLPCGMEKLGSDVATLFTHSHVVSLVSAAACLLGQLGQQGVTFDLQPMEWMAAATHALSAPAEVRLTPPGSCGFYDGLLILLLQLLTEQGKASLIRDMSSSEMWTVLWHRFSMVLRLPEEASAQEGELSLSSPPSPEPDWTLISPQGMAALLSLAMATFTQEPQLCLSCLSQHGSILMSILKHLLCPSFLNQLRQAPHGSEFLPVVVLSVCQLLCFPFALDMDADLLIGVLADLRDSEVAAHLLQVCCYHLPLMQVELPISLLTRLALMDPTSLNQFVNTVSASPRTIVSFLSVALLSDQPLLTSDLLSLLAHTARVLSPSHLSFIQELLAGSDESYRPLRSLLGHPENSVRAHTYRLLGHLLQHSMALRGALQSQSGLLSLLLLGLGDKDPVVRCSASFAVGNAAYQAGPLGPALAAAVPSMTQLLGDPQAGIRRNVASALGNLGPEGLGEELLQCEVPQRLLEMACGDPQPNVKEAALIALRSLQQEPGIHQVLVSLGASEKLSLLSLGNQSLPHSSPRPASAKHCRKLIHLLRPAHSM

STK38L (human) = STK38L (human) (UniProt Q9Y2H1)
TNK1 (human) = TNK1 (human) (UniProt Q13470)
TNK1 (human), sequence (Q13470 whole entry, looked up): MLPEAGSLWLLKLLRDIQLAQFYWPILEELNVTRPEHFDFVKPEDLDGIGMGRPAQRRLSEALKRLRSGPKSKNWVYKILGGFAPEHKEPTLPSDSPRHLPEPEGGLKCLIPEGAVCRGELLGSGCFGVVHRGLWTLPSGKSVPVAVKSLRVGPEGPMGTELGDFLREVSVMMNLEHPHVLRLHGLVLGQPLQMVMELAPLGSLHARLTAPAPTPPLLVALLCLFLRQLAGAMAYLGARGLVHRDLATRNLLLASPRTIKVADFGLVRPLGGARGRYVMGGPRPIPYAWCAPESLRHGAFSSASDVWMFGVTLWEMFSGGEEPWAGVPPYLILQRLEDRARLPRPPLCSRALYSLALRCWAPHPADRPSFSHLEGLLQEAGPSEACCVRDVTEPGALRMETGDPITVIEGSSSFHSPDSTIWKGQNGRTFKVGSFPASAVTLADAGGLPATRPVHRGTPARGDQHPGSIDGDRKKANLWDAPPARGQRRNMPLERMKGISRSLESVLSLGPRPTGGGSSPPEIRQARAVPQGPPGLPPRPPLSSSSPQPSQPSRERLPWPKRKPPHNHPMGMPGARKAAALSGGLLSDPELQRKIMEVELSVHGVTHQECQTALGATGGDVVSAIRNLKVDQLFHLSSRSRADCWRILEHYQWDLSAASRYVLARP

TNNI3K (human) = TNNI3K (human) (UniProt Q59H18)
[12] = target: TYK2 JH1 catalytic (human) (UniProt P29597)

BLK (human), sequence (P51451 whole entry, looked up): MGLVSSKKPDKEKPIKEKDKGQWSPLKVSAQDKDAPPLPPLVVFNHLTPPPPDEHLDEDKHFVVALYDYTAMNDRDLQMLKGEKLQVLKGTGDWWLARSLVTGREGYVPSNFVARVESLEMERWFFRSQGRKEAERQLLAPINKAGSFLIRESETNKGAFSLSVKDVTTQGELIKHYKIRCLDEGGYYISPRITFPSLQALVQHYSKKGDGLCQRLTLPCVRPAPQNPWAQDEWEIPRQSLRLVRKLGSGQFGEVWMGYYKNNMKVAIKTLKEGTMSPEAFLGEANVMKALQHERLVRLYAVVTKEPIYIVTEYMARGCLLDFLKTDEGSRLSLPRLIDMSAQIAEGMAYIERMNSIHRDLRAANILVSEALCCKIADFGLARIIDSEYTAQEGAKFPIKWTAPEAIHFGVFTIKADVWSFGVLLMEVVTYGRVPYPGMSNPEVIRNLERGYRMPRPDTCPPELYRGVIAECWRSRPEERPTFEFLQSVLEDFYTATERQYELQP

With `CCN1CCN(Cc2ccc(NC(=O)c3ccc(C)c(Oc4ccnc5[nH]ccc45)c3)cc2C(F)(F)F)CC1` the kinase still bound, per cent of control [1] was 0.4%, the kinase still bound, per cent of control [2] was 0% and the kinase still bound, per cent of control (ABL2 (human)) was 0.6%. The kinase still bound, per cent of control (ANKK1 (human)) was 23%, the kinase still bound, per cent of control (BLK (human)) was 0.45% and the residual activity (CDK17 (human)) was 0.1%. For the same compound, the residual activity (CDK8 (human)) was 3.9%, the residual activity (CDK9 (human)) was 5.8% and the kinase still bound, per cent of control (CSF1R (human)) was 0%. For the same compound, the kinase still bound, per cent of control (CaMK1 (human)) was 0%, the kinase still bound, per cent of control [3] was 4.6% and the kinase still bound, per cent of control (EPHA3 (human)) was 3.4%. The kinase still bound, per cent of control (EPHA8 (human)) was 0.1%, the kinase still bound, per cent of control (FER (human)) was 0.5% and the kinase still bound, per cent of control (FGFR1 (human)) was 1.7%. It also gave a kinase still bound, per cent of control (FGFR2 (human)) of 1.4%, a kinase still bound, per cent of control [4] of 16% and a kinase still bound, per cent of control [5] of 1.2%. For the same compound, the kinase still bound, per cent of control [6] was 0.7%, the kinase still bound, per cent of control [7] was 0% and the kinase still bound, per cent of control (FLT4 (human)) was 0.2%. The kinase still bound, per cent of control [8] was 2.4%, the kinase still bound, per cent of control (KIT (human)) was 0% and the kinase still bound, per cent of control [9] was 0.05%. It also gave a kinase still bound, per cent of control [10] of 0%, a kinase still bound, per cent of control (LYN (human)) of 0.75% and a kinase still bound, per cent of control (MAP3K3 (human)) of 12%. It also gave a kinase still bound, per cent of control (MAPK9 (human)) of 0%, a kinase still bound, per cent of control (MKNK2 (human)) of 4.2% and a kinase still bound, per cent of control (PTK2B (human)) of 2.1%. For the same compound, the kinase still bound, per cent of control (RET (human)) was 0%, the kinase still bound, per cent of control [11] was 0.8% and the kinase still bound, per cent of control (RPS6KA5 KD1 (human)) was 4.7%. For the same compound, the kinase still bound, per cent of control (SIK1 (human)) was 5.3%, the kinase still bound, per cent of control (SRC (human)) was 0.2% and the kinase still bound, per cent of control (SRMS (human)) was 4.6%. The kinase still bound, per cent of control (STK36 (human)) was 0.2%, the kinase still bound, per cent of control (STK38L (human)) was 6.8% and the kinase still bound, per cent of control (TNK1 (human)) was 0.35%. The kinase still bound, per cent of control (TNNI3K (human)) was 4.8% and the kinase still bound, per cent of control [12] was 0%.
